Several values for one entry are separate records, joined by “and”; a condition that tells them apart may be missing. Equal entries are not always repeated.
Assay: not given
Conditions: spectral region about 640 to about 940 nanometers; cited from earlier work

Molecule | wavelength of light absorbed
5,15-etiobacteriopurpurin | 768 nm and 843 nm
Pd(II)-octabutoxyphthalocyanine | 732 nm and 838 nm
Si(IV)-napthalocyanine | 773 nm

Assay: Absorption peaks of photosensitizers
Assay type: physicochemical
Conditions: relevant absorption peaks, Table 1
Source text: FIG. 1 is a graph showing the absorption bands of protoporphyrin IX, which is produced as a result of 5-aminolevulinic acid metabolism in a mammal. Protoporphyrin IX has an absorption band located in the blue spectral region (the 410 nanometer Soret band) and other weaker absorption bands in the 500 to 650 nanometer visible region, namely at about 506 nanometers, 546 nanometers, and 578 nanometers. […] Table 1 lists several photosensitizers useful in the practice of the invention, and identifies relevant absorption peaks for each of the listed photosensitizers. While the 460 nanometer to 620 nanometer wavelength range includes the relatively strong absorption peaks of oxyhemoglobin and deoxyhemoglobin, these blood components have other absorption peaks (although of lower relative maxima) at longer wavelengths. For example, deoxyhemoglobin has a weaker absorption peak at about 757 nanometers, and oxyhemoglobin has a weaker absorption peak at about 920 nanometers. Pulsed light sources in the red and near infrared (up to approximately 940 nanometers), for example, the flash lamp pumped alexandrite laser (755 nanometer), or semiconductor diode lasers, for example, gallium arsenide laser (810 nanometer) are capable of selective photothermolysis of blood vessels, including the microvessels in psoriatic lesions. Accordingly, under certain circumstances, it may be advantageous to use a source of pulsed or scanned irradiation having a wavelength in the range from about 640 nanometers to about 940 nanometers to perform combined selective photothermolysis of blood vessels and photodynamic therapy (using the appropriate photosensitizer) in the target region. Useful photosensitizers that absorb light in this spectral region include, for example, Pd(II)-octabutoxyphthalocyanine (732 nm, 838 nm), Si(IV)-napthalocyanine (773 nm)(Jori (1996) J. PHOTOCHEM. PHOTOBIOL. B 87-93), and 5,15-etiobacteriopurpurin (768 nm, 843 nm) (U.S. Pat. No. 6,376,483 B1).

Molecule | Wavelength of absorption peaks
O=C([O-])c1c(Cl)c(Cl)c(Cl)c(Cl)c1-c1c2cc(I)c(=O)c(I)c-2oc2c(I)c([O-])c(I)cc12.[Na+].[Na+] [rose bengal] | 548 nm
benzoporphyrin derivative mono-acid | ˜585 nm
nickel 5,10-bis-acrylate etioporphyrin I | 580 nm

Source: patent publication US20040048842A1, “Method of treating skin disorders” (priority 2002, published 2004)
